≈ marks a conversion by molar mass, not a printed value.
Legend:
Format in all cases: cell-based
S. pneumoniae MSC07571 = assay: MIC against S. pneumoniae MSC07571 (CLSI M7-A7 agar method); conditions: Sensitivity disk agar-N+5% horse aseptic defibranated blood, about 10^4 CFU/ml; for MIC: Streptococcus pneumoniae, read-out: minimal inhibitory concentration (MIC)
Description: (§1) For representative compounds among lincomycin derivatives according to the present invention, the minimal inhibitory concentration (MIC, […]) against various pneumococci was measured according to the method described in Clinical and Laboratory Standards Institute, M7-A7, 2006. Sensitivity disk agar-N+5% horse aseptic defibranated blood was used as the medium for the measurement. The amount of bacteria inoculated was about 10^4 CFU/ml.

S. pneumoniae MSC10197 = assay: MIC against S. pneumoniae MSC10197 (CLSI M7-A7 agar method); set-up: unit not given here; conditions: Sensitivity disk agar-N+5% horse aseptic defibranated blood, about 10^4 CFU/ml
Description: as §1

S. pneumoniae MSC07465 = assay: MIC against S. pneumoniae MSC07465 (CLSI M7-A7 agar method); set-up: unit not given here; conditions: Sensitivity disk agar-N+5% horse aseptic defibranated blood, about 10^4 CFU/ml
Description: as §1

S. pneumoniae MSC17994 = assay: MIC against S. pneumoniae MSC17994 (CLSI M7-A7 agar method); set-up: unit not given here; conditions: Sensitivity disk agar-N+5% horse aseptic defibranated blood, about 10^4 CFU/ml
Description: as §1

S. pneumoniae MSC07337 = assay: MIC against S. pneumoniae MSC07337 (CLSI M7-A7 agar method); set-up: unit not given here; conditions: Sensitivity disk agar-N+5% horse aseptic defibranated blood, about 10^4 CFU/ml
Description: as §1

S. pneumoniae MSC07365 = assay: MIC against S. pneumoniae MSC07365 (CLSI M7-A7 agar method); set-up: unit not given here; conditions: Sensitivity disk agar-N+5% horse aseptic defibranated blood, about 10^4 CFU/ml
Description: as §1

S. pneumoniae MSC07471 = assay: MIC against S. pneumoniae MSC07471 (CLSI M7-A7 agar method); set-up: unit not given here; conditions: Sensitivity disk agar-N+5% horse aseptic defibranated blood, about 10^4 CFU/ml
Description: as §1

Row | Compound | MIC (S. pneumoniae MSC07571) | minimal inhibitory concentration (MIC) (S. pneumoniae MSC10197) | minimal inhibitory concentration (MIC) (S. pneumoniae MSC07465) | minimal inhibitory concentration (MIC) (S. pneumoniae MSC17994) | minimal inhibitory concentration (MIC) (S. pneumoniae MSC07337) | minimal inhibitory concentration (MIC) (S. pneumoniae MSC07365) | minimal inhibitory concentration (MIC) (S. pneumoniae MSC07571) | minimal inhibitory concentration (MIC) (S. pneumoniae MSC07471)
1 | CCC[C@@H]1C[C@@H](C(=O)NC(C2OC(SC)C(O)C(O)C2O)[C@H](C)Sc2ccc(CCN(C)C)cc2)N(C)C1 (stereo partly shown) [Compound 1, 7-Deoxy-7-(4-(2-(dimethylamino)ethyl)phenylthio)-7-epilincomycin] | 15 µg/mL (≈ 26.3 µM) | – | – | – | – | – | – | –
2 | CSC1OC(C(NC(=O)[C@@H]2C[C@H](CC3CC3)CCN2C)C(C)Sc2ccc(CCN(C)C)nc2)C(O)C(O)C1O (stereo partly drawn) [Compound 52, Methyl 6-N-((2S,4R)-(4-cyclopropylmethyl-1-methyl)piperidine-2-carbonyl)-7-deoxy-7-(6-(2-(dimethylamino)ethyl)-pyridin-3-ylthio)-7-epi-1-thio-α-lincosamide] | – | 0.25 | 0.25 | 0.25 | 32 | 64 | 250 µg/mL (≈ 419 µM) | 32
3 | CCC[C@@H]1C[C@@H](C(=O)NC(C2OC(SC)C(O)C(O)C2O)[C@H](C)Sc2ccc(CCN(C)CCN(C)C)cc2)N(C)C1 (stereo partly shown) [Compound 10, 7-Deoxy-7-(4-(2-((2-(dimethylamino)ethyl)-(methyl)amino)ethyl)-phenylthio)-7-epilincomycin] | 60 µg/mL (≈ 95.7 µM) | – | – | – | – | – | – | –
4 | CSC1OC(C(NC(=O)[C@@H]2C[C@H](CC3CC3)CCN2C)C(C)Sc2ccc(CCN(C)C3CC3)cc2)C(O)C(O)C1O (stereo partly drawn) [Compound 54, Methyl 7-(4-(2-(cyclopropyl(methyl)-amino)ethyl)phenyl-thio)-6-N-((2S,4R)-4-(cyclopropylmethyl)-1-methylpiperidine-2-carbonyl)-7-deoxy-7-epi-1-thio-α-lincosamide] | – | 0.03 | 0.015 | 0.06 | 2 | 4 | 30 µg/mL (≈ 48.2 µM) | 2

Reference: patent publication US7879808B2, “Lincomycin derivatives and antimicrobial agents comprising the same as active ingredient” (Meiji Seika Kaisha, Ltd., priority 2007, dated 2011)
